Measurements reported in patent US9850283B2, “Macrocyclic inhibitors of the PD-1/PD-L1 and CD80(B7-1)/PD-L1 protein/protein interactions” (BRISTOL-MYERS SQUIBB COMPANY, priority 2013, dated 2017).
Where two headings read alike, the source gives them in different places. Starred links: 1 amine or outer side, 2 acyl side, 3 side chain; linkers in the order of their positions; H or OH if unused. Positions of bridges follow the written chain, without caps; N, C: chain ends. Non-standard residues stand in square brackets, D forms with d. Residues, ends and D or L forms follow the SMILES beside them. Phe(3,4,5-F3) = N[C@@H](Cc1cc(F)c(F)c(F)c1)C(=O)O; Pro(4R-Bn) = O=C(O)[C@@H]1C[C@@H](Cc2ccccc2)CN1; Pro(4,4-F2) = O=C(O)[C@@H]1CC(F)(F)CN1; Bta = N[C@@H](Cc1csc2ccccc12)C(=O)O; Hyp = O=C(O)[C@@H]1C[C@@H](O)CN1; NMeF = CN[C@@H](Cc1ccccc1)C(=O)O; X4 = O=C([C@H]1COCCN1[*:1])[*:2]; dHyp = O=C(O)[C@H]1C[C@H](O)CN1; NMeNle = CCCC[C@H](NC)C(=O)O; Pen = CC(C)(S)[C@H](N)C(=O)O; NMeA = CN[C@@H](C)C(=O)O; Orn = NCCC[C@H](N)C(=O)O; Dab = NCC[C@H](N)C(=O)O; Sar = CNCC(=O)O

What was measured:
[1] = target: T1, LK35.2-hPD-L1 cells / PE-labeled PD-1-Ig (Homo sapiens, UniProt Q9NZQ7); assay: LK35.2-hPD-L1 cell binding high-content screening assay; type: cell-based; settings: cluster symbol, read-out: CBA IC50 cluster
T1 construct: expressed in transfected cells; host or cells: LK35.2 mouse B cell line
Procedure, shortened: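 Compound effect on PD-1/PD-L1 binding is measured by imaging cell-associated phycoerythrin signal. Human PD-1-Ig (PE on Ig tag, 1 nM final) is applied with compound to a murine B cell line overexpressing human PD-L1 for 1 h at 37 °C in serum-containing RPMI.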

Human PD-L1/PD-1 = target: T2, Human PD-L1/PD-1 (Homo sapiens, UniProt Q9NZQ7); assay: HTRF PD-1-Ig/PD-L1-His binding assay (human PD-L1); settings: cluster symbol; read-out: HTRF IC50 cluster
T2 construct: made in house; host or cells: HEK293T
Procedure, shortened: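 Steps: truncated PD-1-Ig and PD-L1-His fusions are incubated in dPBS containing 0.1% (w/v) BSA and 0.05% (v/v) Tween-20. Detection antibodies are then added (Eu cryptate anti-Ig at 1 nM final, APC anti-His at 20 nM final), and time-resolved FRET is measured.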

[2] = cell line of CBA not given (LK35.2-hPD-L1 or 293T-hPD-L1)
[3] = cell binding assay, cell line not given

T2 sequence (Q9NZQ7 with tags, fused parts or gaps): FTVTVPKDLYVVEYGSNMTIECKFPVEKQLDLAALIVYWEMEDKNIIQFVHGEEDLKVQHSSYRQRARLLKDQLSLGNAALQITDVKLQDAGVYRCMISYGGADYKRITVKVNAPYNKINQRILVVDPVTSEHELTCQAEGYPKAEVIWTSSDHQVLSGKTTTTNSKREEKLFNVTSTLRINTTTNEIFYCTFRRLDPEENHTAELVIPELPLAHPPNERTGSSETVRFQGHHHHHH
T1 sequence (Q9NZQ7 19-290): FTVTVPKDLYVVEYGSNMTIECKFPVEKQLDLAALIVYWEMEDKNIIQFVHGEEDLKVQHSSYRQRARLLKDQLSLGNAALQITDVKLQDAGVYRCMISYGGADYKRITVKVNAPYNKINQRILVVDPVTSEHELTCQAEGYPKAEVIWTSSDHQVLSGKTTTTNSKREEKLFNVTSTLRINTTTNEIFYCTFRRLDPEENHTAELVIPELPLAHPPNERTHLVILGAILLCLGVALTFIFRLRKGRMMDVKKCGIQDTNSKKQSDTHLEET

IC50 [1, 2] [nM]	IC50 (Human PD-L1/PD-1) [nM]	IC50 [1, 3] [nM]	Structure (SMILES)
0.158 to 4.71	6.76 to 30.3		CCCC[C@H]1C(=O)N(C)[C@@H](CCCC)C(=O)N[C@@H](CCCNC(=N)N)C(=O)N[C@H](C(=O)NCC(N)=O)CSCC(=O)N[C@@H](Cc2ccc(O)cc2)C(=O)N(C)[C@@H](C)C(=O)N[C@@H](CC(N)=O)C(=O)N2CCC[C@H]2C(=O)N[C@@H](Cc2cnc[nH]2)C(=O)N[C@@H](CC(C)C)C(=O)N2CC(F)(F)C[C@H]2C(=O)N[C@@H](Cc2c[nH]c3ccccc23)C(=O)N[C@@H](CO)C(=O)N[C@@H](Cc2csc3ccccc23)C(=O)N1C [Example 1036] ({CH2CO}-Y[NMeA]NPHL[Pro(4,4-F2)]WS[Bta][NMeNle][NMeNle]RCG-NH2; thioether N-14)
	0.385 to 6.74	0.158 to 4.71	CCCC[C@H]1C(=O)N(C)[C@@H](CCCC)C(=O)N[C@@H](C)C(=O)N[C@H](C(=O)NCC(N)=O)CSCC(=O)N[C@@H](Cc2ccc(O)cc2)C(=O)N(C)[C@@H](C)C(=O)N[C@@H](CC(=O)O)C(=O)N2CCC[C@H]2C(=O)N[C@@H](Cc2cnc[nH]2)C(=O)N[C@@H](CCC(N)=O)C(=O)N2C[C@H](O)C[C@H]2C(=O)N[C@@H](Cc2c[nH]c3ccccc23)C(=O)N[C@@H](CCN)C(=O)N[C@@H](Cc2c[nH]c3ccccc23)C(=O)N1C [Example 5039] ({CH2CO}-Y[NMeA]DPHQ[Hyp]W[Dab]W[NMeNle][NMeNle]ACG-NH2; thioether N-14)
	0.385 to 6.74	0.158 to 4.71	CCCC[C@H]1C(=O)N(C)[C@@H](CCCC)C(=O)N[C@@H](CCN)C(=O)N[C@H](C(=O)NCC(N)=O)CSCC(=O)N[C@@H](Cc2ccc(O)cc2)C(=O)N(C)[C@@H](C)C(=O)N[C@@H](CC(N)=O)C(=O)N2CCC[C@H]2C(=O)N[C@@H](Cc2c[nH]cn2)C(=O)N[C@@H](CCC(=O)O)C(=O)N2C[C@H](Cc3ccccc3)C[C@H]2C(=O)N[C@@H](Cc2c[nH]c3ccccc23)C(=O)N[C@@H](CCN)C(=O)N[C@@H](Cc2c[nH]c3ccccc23)C(=O)N1C [Example 13007] ({CH2CO}-Y[NMeA]NPHE[Pro(4R-Bn)]W[Dab]W[NMeNle][NMeNle][Dab]CG-NH2; thioether N-14)
	0.385 to 6.74	0.158 to 4.71	CCCC[C@H]1C(=O)N2C[C@@H](O)C[C@@H]2C(=O)N[C@@H](CC(N)=O)C(=O)N[C@@H](C(C)C)C(=O)N(C)[C@@H](Cc2ccccc2)C(=O)N[C@@H](Cc2ccc(O)cc2)C(=O)N2CCOC[C@@H]2C(=O)N[C@@H](Cc2c[nH]c3ccccc23)C(=O)N[C@@H](Cc2ccc(O)cc2)C(=O)N[C@@H](CCCN)C(=O)N[C@H](C(=O)NCC(N)=O)CSCC(=O)N[C@@H](Cc2cc(F)c(F)c(F)c2)C(=O)N(C)[C@@H](Cc2ccccc2)C(=O)N1C [Example 3606] ({CH2CO}-[Phe(3,4,5-F3)][NMeF][NMeNle][dHyp]NV[NMeF]Y[X4]WY[Orn]CG-NH2; thioether N-13)
4.78 to 72.9	0.385 to 6.74		CCCC[C@H]1C(=O)N(C)[C@@H](CCCC)C(=O)N[C@@H](CCCNC(=N)N)C(=O)N[C@H](C(=O)NCC(N)=O)C(C)(C)SCC(=O)N[C@@H](Cc2ccccc2)C(=O)N(C)[C@@H](C)C(=O)N[C@@H](CC(N)=O)C(=O)N2CCC[C@H]2C(=O)N[C@@H](Cc2cnc[nH]2)C(=O)N[C@@H](CC(C)C)C(=O)N(C)CC(=O)N[C@@H](Cc2c[nH]c3ccccc23)C(=O)N[C@@H](CO)C(=O)N[C@@H](Cc2c[nH]c3ccccc23)C(=O)N1C [Example 1083] ({CH2CO}-F[NMeA]NPHL[Sar]WSW[NMeNle][NMeNle]R[Pen]G-NH2; thioether N-14)
	0.385 to 6.74	0.158 to 4.71	CCCC[C@H]1C(=O)N(C)[C@@H](CCCC)C(=O)N[C@@H](CCCCN)C(=O)N[C@H](C(=O)NCC(N)=O)CSCC(=O)N[C@@H](Cc2ccc(O)cc2)C(=O)N(C)[C@@H](C)C(=O)N[C@@H](CC(=O)O)C(=O)N2CCC[C@H]2C(=O)N[C@@H](Cc2c[nH]cn2)C(=O)N[C@@H](CCC(N)=O)C(=O)N2C[C@H](O)C[C@H]2C(=O)N[C@@H](Cc2c[nH]c3ccccc23)C(=O)N[C@@H](CO)C(=O)N[C@@H](Cc2c[nH]c3ccccc23)C(=O)N1C [Example 5120] ({CH2CO}-Y[NMeA]DPHQ[Hyp]WSW[NMeNle][NMeNle]KCG-NH2; thioether N-14)
